Assays:
[1] = decomplexation kinetics (kinetic inertia) in acidic aqueous solution, pH 1.2, 37° C.; type: physicochemical; conditions: same conditions (pH 1.2, 37° C.), comparative
Experimental: Besides, iso4 is the group of isomers which has the best kinetic inertia (also known as kinetic stability) among the four groups isolated by the inventors. Specifically, the inventors evaluated the kinetic inertia of the four groups of isomers by studying their decomplexation kinetics in acidic aqueous solution (pH=1.2), at 37° C. The half-life time values (T1/2) which were determined for each of the groups of isomers are indicated in table 1 below, the half-life time corresponding to the time after which 50% of the amount of complex initially present has been dissociated, according to the following decomplexation reaction (equation 2): […]

[2] = as described in WO 2014/174120 / for comparative purposes; cited from earlier work

kinetic inertia (dissociation, in words) [1]	kinetic inertia [1]	SMILES	log (Ktherm), stability constant [2]
dissociate instantaneously	–	O=C([O-])CN(CCN(CC(=O)[O-])CC(=O)O)CCN(CC(=O)[O-])CC(=O)O.[Gd+3] [gadopentetate]	–
dissociate instantaneously	–	CNC(=O)CN(CCN(CCN(CC(=O)[O-])CC(=O)NC)CC(=O)[O-])CC(=O)[O-].[Gd+3] [gadodiamide]	–
–	4 days	O=C([O-])CN1CCN(CC(=O)[O-])CCN(CC(=O)O)CCN(CC(=O)[O-])CC1.[Gd+3] [DOTA-Gd, gadolinium complex of 1,4,7,10-tetraazacyclododecane-N,N′,N″,N′″-tetraacetic acid]	25.6
–	0.75 days	O=C([O-])CN1CCN(CC(=O)[O-])CCN([C@H](CO)[C@H](O)CO)CCN(CC(=O)[O-])CC1.[Gd+3] (racemic) [gadobutrol]	–

Reference: patent US11370804B2, “Complex of gadolinium and a chelating ligand derived from a diastereoisomerically enriched PCTA and preparation and purification process” (GUERBET, priority 2020, dated 2022)
